The target of experiment [1] is T1, human sodium glucose co-transporter 2 (Homo sapiens, UniProt P31639).
T1 construct: expressed in transfected cells; host or cells: CHO-K1 (ATCC CCL-61) or HEK293 (ATCC CRL-1573), stably transfected with pZeoSV carrying the hSGLT2 cDNA
T1 sequence (P31639 1-672): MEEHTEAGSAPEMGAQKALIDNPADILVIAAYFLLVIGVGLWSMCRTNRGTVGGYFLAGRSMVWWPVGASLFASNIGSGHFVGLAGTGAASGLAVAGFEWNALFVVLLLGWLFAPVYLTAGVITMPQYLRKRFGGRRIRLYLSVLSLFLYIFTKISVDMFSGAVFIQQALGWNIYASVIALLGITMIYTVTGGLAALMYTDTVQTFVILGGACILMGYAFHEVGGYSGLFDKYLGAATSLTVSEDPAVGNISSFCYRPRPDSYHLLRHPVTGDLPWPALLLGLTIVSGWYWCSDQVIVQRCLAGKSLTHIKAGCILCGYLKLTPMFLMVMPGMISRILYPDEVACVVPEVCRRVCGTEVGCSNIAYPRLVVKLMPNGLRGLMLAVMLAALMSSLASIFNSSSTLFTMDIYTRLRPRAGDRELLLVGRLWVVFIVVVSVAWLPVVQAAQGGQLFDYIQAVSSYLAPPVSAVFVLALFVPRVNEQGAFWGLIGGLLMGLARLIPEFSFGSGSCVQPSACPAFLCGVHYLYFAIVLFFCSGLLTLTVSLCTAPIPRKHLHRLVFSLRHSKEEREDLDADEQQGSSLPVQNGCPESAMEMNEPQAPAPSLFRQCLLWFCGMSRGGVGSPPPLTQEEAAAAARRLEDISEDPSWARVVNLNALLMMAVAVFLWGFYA
Put plainly: SGLT-2 assay: sodium-dependent 14C-AMG uptake in CHO-hSGLT2 or HEK-hSGLT2 cells. Particulars: n = 1-4, read-out: SGLT2 IC50 nM (n = 1-4). It is filed as cell-based. How it is done: These cell lines transport ^14C-labelled alpha-methyl-glucopyranoside (^14C-AMG, Amersham) into the interior of the cell in sodium-dependent manner.
(§1) The SGLT-2 assay is carried out as follows: CHO-hSGLT2 cells are cultivated in Ham's F12 Medium (BioWhittaker) with 10% foetal calf serum and 250 μg/mL zeocin (Invitrogen), and HEK293-hSGLT2 cells are cultivated in DMEM medium with 10% foetal calf serum and 250 μg/mL zeocin (Invitrogen). The cells are detached from the culture flasks by washing twice with PBS and subsequently treating with trypsin/EDTA. After the addition of cell culture medium the cells are centrifuged, resuspended in culture medium and counted in a Casy cell counter. Then 40,000 cells per well are seeded into a white, 96-well plate coated with poly-D-lysine and incubated overnight at 37° C., 5% CO2. The cells are washed twice with 250 μl of assay buffer (Hanks Balanced Salt Solution, 137 mM NaCl, 5.4 mM KCl, 2.8 mM CaCl2, 1.2 mM MgSO4 and 10 mM HEPES (pH 7.4), 50 μg/mL of gentamycin). 250 μl of assay buffer and 5 μl of test compound are then added to each well and the plate is incubated for a further 15 minutes in the incubator. 5 μl of 10% DMSO are used as the negative control. The reaction is started by adding 5 μl of 14 C— AMG (0.05 μCi) to each well. After 2 hours' incubation at 37° C., 5% CO2, the cells are washed again with 250 μl of PBS […] and then lysed by the addition of 25 μl of 0.1 N NaOH (5 min. at 37° C.). 200 μl of MicroScint20 (Packard) are added to each well and incubation is continued for a further 20 min at 37° C. After this incubation the radioactivity of the ^14C-AMG absorbed is measured in a Topcount (Packard) using a ^14C scintillation program.

A further experiment concerns the target T2, human SGLT1 (Homo sapiens, UniProt P13866).
T2 construct: the cDNA for hSGLTI (Genbank Ace. No. NM000343); expressed in transfected cells; host or cells: CHO-K1 or HEK293 cells expressing the hSGLT1 cDNA
T2 sequence (P13866 1-664): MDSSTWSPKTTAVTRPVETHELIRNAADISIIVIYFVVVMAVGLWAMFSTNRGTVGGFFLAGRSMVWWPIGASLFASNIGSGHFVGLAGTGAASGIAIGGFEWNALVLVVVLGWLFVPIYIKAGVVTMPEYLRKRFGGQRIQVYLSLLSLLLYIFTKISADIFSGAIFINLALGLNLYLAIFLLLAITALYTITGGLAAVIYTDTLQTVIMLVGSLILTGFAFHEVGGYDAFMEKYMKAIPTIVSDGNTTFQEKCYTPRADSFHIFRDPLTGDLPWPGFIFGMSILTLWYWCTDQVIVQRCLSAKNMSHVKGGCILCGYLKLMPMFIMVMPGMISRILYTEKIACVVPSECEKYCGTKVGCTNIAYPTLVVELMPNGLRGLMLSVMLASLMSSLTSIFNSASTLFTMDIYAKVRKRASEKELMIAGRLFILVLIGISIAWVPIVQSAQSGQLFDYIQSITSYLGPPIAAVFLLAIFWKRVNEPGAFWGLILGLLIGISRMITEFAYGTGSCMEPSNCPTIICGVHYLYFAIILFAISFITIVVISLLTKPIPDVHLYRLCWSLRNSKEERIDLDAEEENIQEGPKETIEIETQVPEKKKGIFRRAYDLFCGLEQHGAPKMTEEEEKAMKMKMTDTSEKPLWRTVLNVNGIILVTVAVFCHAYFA
As to the kind of experiment: SGLT1 assay: analogous 14C-AMG uptake test with hSGLT1 cDNA expressed in CHO-K1 or HEK293 cells. The experiment is classed as cell-based. Particulars: n = 1-4. How it is done: as §1
To determine the selectivity with respect to human SGLT1 an analogous test is set up in which the cDNA for hSGLTI (Genbank Ace. No. NM000343) instead of hSGLT2 cDNA is expressed in CHO-K1 or HEK293 cells.

We go through four compounds from patent US8722633B2, “Glycoside derivatives and uses thereof” (Novartis AG, priority 2011, dated 2014).

Structures are written as SMILES.

Broadly, the IC50 is the point on the concentration scale where inhibition reaches its midpoint. As for `CCc1ccc([C@@H]2O[C@H](S(C)(=O)=O)[C@@H](O)[C@H](O)[C@H]2O)cc1Cc1ccc2c(c1)OCCO2` [Example 2-1, (2S,3R,4R,5S,6R)-2-[3-(2,3-Dihydro-benzo[1,4]dioxin-6-ylmethyl)-4-ethyl-phenyl]-6-methanesulfonyl-tetrahydropyran-3,4,5-triol], the values for the IC50 (in experiment [1]; on human SGLT1) were 1.45 nM and 195 nM, respectively. The matching figures for `CS(=O)(=O)[C@H]1O[C@@H](c2ccc(C3CC3)c(Cc3ccc4c(c3)OCCO4)c2)[C@H](O)[C@@H](O)[C@@H]1O` [Example 2, (2S,3R,4R,5S)-2-[4-Cyclopropyl-3-(2,3-dihydro-benzo[1,4]dioxin-6-ylmethyl)-phenyl]-6-methanesulfonyl-tetrahydro-pyran-3,4,5-triol]: 9.2 nM and 97 nM. `CSC1O[C@@H](c2ccc(C3CC3)c(Cc3ccc4c(c3)OCCO4)c2)[C@H](O)[C@@H](O)[C@@H]1O` (stereo partly drawn) [Example 1, (2S,3R,4R,5S)-2-[4-cyclopropyl-3-(2,3-dihydro-benzo[1,4]dioxin-6-ylmethyl)-phenyl]-6-methylsulfanyl-tetrahydro-pyran-3,4,5-triol]: the IC50 in experiment [1] was 0.29 nM; against human SGLT1 it was 0.55 nM. Turning to `CCc1ccc([C@@H]2O[C@H](SC)[C@@H](O)[C@H](O)[C@H]2O)cc1Cc1ccc2c(c1)OCCO2` [Example 1-1, (2S,3R,4R,5S,6R)-2-[3-(2,3-Dihydro-benzo[1,4]dioxin-6-ylmethyl)-4-ethyl-phenyl]-6-methylsulfanyl-tetrahydropyran-3,4,5-triol], in experiment [1], the 50% inhibitory concentration (IC50) came to 0.36 nM.
